Measurements reported in BindingDB's records for doi:10.3109/14756366.2011.599029 (Dumlupinar University, 2012).

How the values were obtained:
Carbonic anhydrase 2 = Carbonic anhydrase 2 (Homo sapiens, UniProt P00918); experiment: hCA Activity Assay
Carbonic anhydrase 1 = Carbonic anhydrase 1 (Homo sapiens, UniProt P00915); experiment: hCA Activity Assay
Sequence of Carbonic anhydrase 1 (P00915 whole entry): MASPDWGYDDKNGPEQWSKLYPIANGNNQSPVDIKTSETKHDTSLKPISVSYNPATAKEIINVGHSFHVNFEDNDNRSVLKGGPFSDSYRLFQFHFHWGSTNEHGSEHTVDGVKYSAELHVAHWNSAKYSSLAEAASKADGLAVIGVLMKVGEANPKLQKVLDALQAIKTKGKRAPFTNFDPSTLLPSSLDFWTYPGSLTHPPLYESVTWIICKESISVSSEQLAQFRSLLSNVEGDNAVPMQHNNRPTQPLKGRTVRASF

CC1(C)CCC2=C(C1=O)C(c1ccc(C#N)cc1)C1=C(CCC(C)(C)C1=O)N2c1ccc(S(N)(=O)=O)cc1 [4-(9-(4-Cyanophenyl)-2,2,7,7-tetramethyl 1,8-dioxo 1,2,3,4,5,6,7,8-octahydroacridine 10(9H)-yl)benzenesulfonamide (9)]
Ki (Carbonic anhydrase 2): 95 nM
Ki (Carbonic anhydrase 1): 135 nM

CC1(C)CCC2=C(C1=O)C(c1ccc(Cl)cc1Cl)C1=C(CCC(C)(C)C1=O)N2c1ccc(S(N)(=O)=O)cc1 [4-(9-(2,4-Dichlorophenyl)-2,2,7,7-tetramethyl 1,8-dioxo 1,2,3,4,5,6,7,8-octahydroacridine 10(9H)-yl)benzenesulfonamide (12)]
Ki (Carbonic anhydrase 2): 35 nM
Ki (Carbonic anhydrase 1): 220 nM

CC1(C)CCC2=C(C1=O)C(c1ccc(O)cc1)C1=C(CCC(C)(C)C1=O)N2c1ccc(S(N)(=O)=O)cc1 [4-(9-(4-Hydroxyphenyl)-2,2,7,7-tetramethyl 1,8-dioxo 1,2,3,4,5,6,7,8-octahydroacridine 10(9H)-yl)benzenesulfonamide (10)]
Ki (Carbonic anhydrase 2): 125 nM
Ki (Carbonic anhydrase 1): 45 nM

COc1ccc(C2C3=C(CCCC3=O)N(c3ccc(S(N)(=O)=O)cc3)C3=C2C(=O)CCC3)c(OC)c1 [4-(9-(2,4-dimethoxyphenyl)-1,8-dioxo-1,2,3,4,5,6,7,8-octahydroacridine-10(9H)-yl) benzenesulfonamide (7)]
Ki (Carbonic anhydrase 2): 1.5 nM
Ki (Carbonic anhydrase 1): 15 nM

CC1(C)CC(=O)C2=C(C1)N(c1ccc(S(N)(=O)=O)cc1)C1=C(C(=O)CC(C)(C)C1)C2c1ccccn1 [4-(3,3,6,6-tetramethyl-1,8-dioxo-9-(pyridin-2-yl)-1,2,3,4,5,6,7,8-octahydroacridine-10(9H)-yl)benzenesulfonamide (6)]
Ki (Carbonic anhydrase 2): 130 nM
Ki (Carbonic anhydrase 1): 55 nM

COc1ccc(C2C3=C(CC(C)(C)CC3=O)N(c3ccc(S(N)(=O)=O)cc3)C3=C2C(=O)CC(C)(C)C3)cc1 [4-(9-(4-Methoxyphenyl)-3,3,6,6-tetramethyl-1,8-dioxo-1,2,3,4,5,6,7,8-octahydroacridine-10(9H)-yl)benzenesulfonamide (5)]
Ki (Carbonic anhydrase 2): 150 nM
Ki (Carbonic anhydrase 1): 75 nM

COc1ccc(C2C3=C(CCCC3=O)N(c3ccc(S(N)(=O)=O)cc3)C3=C2C(=O)CCC3)cc1 [4-(9-(4-methoxyphenyl)-1,8-dioxo-1,2,3,4,5,6,7,8-octahydroacridine-10(9H)-yl)benzene sulfonamide (8)]
Ki (Carbonic anhydrase 2): 7 nM
Ki (Carbonic anhydrase 1): 8.5 nM

CC1(C)CC(=O)C2=C(C1)N(c1ccc(S(N)(=O)=O)cc1)C1=C(C(=O)CC(C)(C)C1)C2c1ccc(C#N)cc1 [4-(9-(4-Cyanophenyl)-3,3,6,6-tetramethyl-1,8-dioxo-1,2,3,4,5,6,7,8-octahydroacridine-10(9H)-yl)benzenesulfonamide (4)]
Ki (Carbonic anhydrase 2): 250 nM
Ki (Carbonic anhydrase 1): 520 nM

COc1ccc(C2C3=C(CCC(C)(C)C3=O)N(c3ccc(S(N)(=O)=O)cc3)C3=C2C(=O)C(C)(C)CC3)cc1OC [4-(9-(3,4-Dimethoxyphenyl)-2,2,7,7-tetramethyl 1,8-dioxo 1,2,3,4,5,6,7,8-octahydroacridine 10(9H)-yl)benzenesulfonamide (11)]
Ki (Carbonic anhydrase 2): 120 nM
Ki (Carbonic anhydrase 1): 205 nM
